Columns and labels:
IBAT = IBAT (Mus musculus (Mouse), UniProt P70172); experiment: 75SeHCAT intestinal absorption in ApoE knock out mice (IBAT inhibitory effect); type: in vivo; details: po, oral dose 0.156 μmol/kg, 75SeHCAT absorption over 24 hours
Procedure: Species Mouse; Strain ApoE knock out; Sub strain C57BL/6; Sex Female; Total No. of animals 70; Body weight range 20 g to 22 g; Supplier Möllegaard's Breeding (Skensved, Denmark); Identification method ID cards (bar code).
Acclimatisation At least one week at the Section of Laboratory; Animal Resource at AstraZeneca; Housing conditions Kept five by five in cages (Makrolon III, 7 dm2) in a room with regulated temperature (22° C.), relative humidity (40% to 60%) and a 12/12 hours light/dark cycle. Diet Free access to R3 pellets (Lactamin, Vadstena, Sweden) during the housing and experimental period. Water, free access to tap water during the housing and experimental period.
The animals were orally administered vehicle (n=3) or the compound of Example 14 (0.156 (n=3), 0.625 (n=3) or 2.5 μmol/kg (n=3)) at 13:00 o'clock on the experimental day. Thirty minutes later, a trace amount of ^75SeHCAT (^75Se-homo-tauro-cholic acid) ([…] per 0.1 mL per mouse) was orally given to each mouse. Twenty-four hours after ^75SeHCAT administration, the animals were killed by CO2 inhalation. At sacrifice, the gall bladder and the whole intestine were removed, and the faeces during the 24-hour period after ^75SeHCAT administration was collected for each mouse. The gamma radioactivities of ^75SeHCAT in the faeces and in the gall bladder-intestine were separately counted by 1282 CompuGamma CS Gamma counter (Wallac oy, Turku, Finland). The stability as well as the quantity of the ^75SeHCAT administered to each mouse, were controlled with an additional ^75SeHCAT aliquot following the same experimental process as other tested samples in the study.
The sum of the gamma counts from both the faeces and the gall bladder-intestine was considered as the total recovered ^75SeHCAT, which was averaged around 85% of the total ^75SeHCAT administered to each mouse. Of the recovered radioactivity of ^75SeHCAT, the percentage of the ^75SeHCAT detected in the faeces was considered as the faecal excretion while that in the gall bladder-intestine as body retention. Inhibitory effect of the compound of Example 14 on ^75SeHCAT intestinal absorption was calculated following the ^75SeHCAT body retention and the faecal excretion, and the ED50 of the compound was estimated following the dose-effect curve.
The mean IBAT inhibitory effect (%) at a dose (μmol/kg): 0.156 was determined for the compounds of examples 1-14 and is reported in Table 1.

[1] = target: Ileal Bile Acid Transporter Human (Homo sapiens (Human), UniProt Q12908); experiment: ISBT Hu HEK Uptake SPA: glycocholic acid uptake, radiometric SPA; type: cell-based; details: human IBAT in HEK cells
Sequence of Ileal Bile Acid Transporter Human (Q12908 whole entry): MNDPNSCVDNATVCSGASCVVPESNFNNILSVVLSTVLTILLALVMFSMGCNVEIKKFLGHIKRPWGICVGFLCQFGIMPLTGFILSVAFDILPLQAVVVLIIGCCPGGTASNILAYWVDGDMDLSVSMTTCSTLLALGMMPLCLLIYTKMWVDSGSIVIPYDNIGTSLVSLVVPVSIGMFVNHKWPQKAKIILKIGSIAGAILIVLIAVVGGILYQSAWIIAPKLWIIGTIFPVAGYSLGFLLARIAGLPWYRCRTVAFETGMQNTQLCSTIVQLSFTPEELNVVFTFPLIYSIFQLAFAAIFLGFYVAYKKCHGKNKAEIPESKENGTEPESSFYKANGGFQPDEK
Procedure: ISBT Hu HEK Uptake SPA 13203 IBAT HUM Ileal Bile Acid Transporter Human HEK Glycocholic acid Uptake Radiometric—SPA Inhibitor IC50 Mean IC50 (nM) was determined for the compounds of examples 1-14

Mdr2−/− mice = experiment: In vivo animal model of primary sclerosing cholangitis (Mdr2-/- mice); details: daily oral gavage for 2-4 weeks, vs vehicle
Description: A genetic mice with targeted disruption of the Multidrug resistant Mdr2 (Abcb4) gene encoding a canalicular phospholipid flippase (Mdr2−/−mice) spontaneously develop sclerosing cholangitis with macroscopic and microscopic features of human Primary sclerosing cholangitis. Bile duct injury in these mice is linked to defective biliary phospholipid secretion resulting in an increased concentration of free non-micellar bile acids which subsequently cause bile duct epithelial cell (cholangiocyte) injury, pericholangitis, periductal fibrosis with ductular proliferation and finally sclerosing cholangitis. […] In analogy to the Mdr2−/− mouse model of sclerosing cholangitis, Multidrug resistant protein MDR3/ABCB4 (the human orthologue of rodent Mdr2/Abcb4) defects play a role in the pathogenesis of various cholangiopathies in humans. MDR3 variants play a role as a modifier gene in the pathogenesis of various cholangiopathies such as PSC, Primary Biliary cirrhosis (PBC) and adulthood idiopathic ductopenia/biliary fibrosis.
Mdr2−/− mice were given daily oral doses of the compound of Example 14 by gavage for 2-4 weeks and controls were dosed the vehicle in the same way. Serum liver tests, liver histology and fibrosis were investigated. The compound of Example 14 improves liver tests, liver histology and fibrosis.

Sequence of IBAT (P70172 whole entry): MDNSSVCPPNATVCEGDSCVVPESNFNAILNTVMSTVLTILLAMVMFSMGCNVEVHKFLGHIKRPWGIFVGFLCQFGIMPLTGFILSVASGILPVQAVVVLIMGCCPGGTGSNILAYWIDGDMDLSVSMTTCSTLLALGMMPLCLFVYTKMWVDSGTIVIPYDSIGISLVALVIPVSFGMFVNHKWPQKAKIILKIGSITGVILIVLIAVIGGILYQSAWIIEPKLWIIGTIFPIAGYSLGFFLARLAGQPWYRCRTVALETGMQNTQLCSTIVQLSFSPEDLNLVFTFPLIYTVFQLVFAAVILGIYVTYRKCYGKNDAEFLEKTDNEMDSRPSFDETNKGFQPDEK

SMILES | inhibition at 0.156 µmol/kg (IBAT) | other results
CCCCC1(CCCC)CN(c2ccccc2)c2cc(SC)c(OCC(=O)N[C@@H](C(=O)NCC(=O)O)c3ccccc3)cc2S(=O)(=O)N1 [Example 1, 1,1-Dioxo-3,3-dibutyl-5-phenyl-7-methylthio-8-(N—{(R)-α-[N-(carboxymethyl)carbamoyl]benzyl}carbamoylmethoxy)-2,3,4,5-tetrahydro-1,2,5-benzothiadiazepine] | 43% | 
CCCCC1(CCCC)CN(c2ccccc2)c2cc(SC)c(OCC(=O)N[C@@H](C(=O)N[C@@H](CC)C(=O)O)c3ccccc3)cc2S(=O)(=O)N1 [Example 3, 1,1-Dioxo-3,3-dibutyl-5-phenyl-7-methylthio-8-(N—{(R)-α-[N—((S)-1-carboxypropyl)carbamoyl]benzyl}carbamoylmethoxy)-2,3,4,5-tetrahydro-1,2,5-benzothiadiazepine] | 63% | 
CCCCC1(CCCC)CN(c2ccccc2)c2cc(SC)c(OCC(=O)N[C@@H](C(=O)N[C@@H](CSC)C(=O)O)c3ccccc3)cc2S(=O)(=O)N1 [Example 4, 1,1-Dioxo-3,3-dibutyl-5-phenyl-7-methylthio-8-(N—{(R)-α-[N—((R)-1-carboxy-2-methylthioethyl)carbamoyl]benzyl}carbamoylmethoxy)-2,3,4,5-tetrahydro-1,2,5-benzothiadiazepine] | 63% | 
CCCCC1(CCCC)CN(c2ccccc2)c2cc(SC)c(OCC(=O)N[C@@H](C(=O)N[C@@H](CC)C(=O)O)c3ccc(O)cc3)cc2S(=O)(=O)N1 [Example 5, 1,1-Dioxo-3,3-dibutyl-5-phenyl-7-methylthio-8-(N—{(R)-α-[N—((S)-1-carboxypropyl)carbamoyl]-4-hydroxybenzyl}carbamoylmethoxy)-2,3,4,5-tetrahydro-1,2,5-benzothiadiazepine] | 74% | 
CCCCC1(CCCC)CN(c2ccccc2)c2cc(SC)c(OCC(=O)N[C@@H](C(=O)N[C@@H](CSC)C(=O)O)c3ccc(O)cc3)cc2S(=O)(=O)N1 [Example 6, 1,1-Dioxo-3,3-dibutyl-5-phenyl-7-methylthio-8-(N—{(R)-α-[N—((R)-1-carboxy-2-methylthio-ethyl)carbamoyl]-4-hydroxybenzyl}carbamoylmethoxy)-2,3,4,5-tetra hydro-1,2,5-benzothiadiazepine] | 59% | 
CCCCC1(CCCC)CN(c2ccccc2)c2cc(SC)c(OCC(=O)N[C@@H](C(=O)N[C@H](C(=O)O)C(C)C)c3ccccc3)cc2S(=O)(=O)N1 [Example 7, 1,1-Dioxo-3,3-dibutyl-5-phenyl-7-methylthio-8-(N—{(R)-α-[N—((S)-1-carboxy-2-methylpropyl)carbamoyl]benzyl}carbamoylmethoxy)-2,3,4,5-tetrahydro-1,2,5-benzothiadiazepine] | 66% | 
CCCCC1(CCCC)CN(c2ccccc2)c2cc(SC)c(OCC(=O)N[C@@H](C(=O)N[C@H](C(=O)O)[C@@H](C)O)c3ccc(O)cc3)cc2S(=O)(=O)N1 [Example 8, 1,1-Dioxo-3,3-dibutyl-5-phenyl-7-methylthio-8-(N—{(R)-α-[N—((S)-1-carboxy-2-(R)-hydroxypropyl)carbamoyl]-4-hydroxybenzyl}carbamoylmethoxy)-2,3,4,5-tetrahydro-1,2,5-benzothiadiazepine] | 46% | 
CCCCC1(CCCC)CN(c2ccccc2)c2cc(SC)c(OCC(=O)N[C@@H](C(=O)N[C@@H](CCC)C(=O)O)c3ccc(O)cc3)cc2S(=O)(=O)N1 [Example 9, 1,1-Dioxo-3,3-dibutyl-5-phenyl-7-methylthio-8-(N—{(R)-α-[N—((S)-1-carboxybutyl)carbamoyl]-4-hydroxybenzyl}carbamoylmethoxy)-2,3,4,5-tetrahydro-1,2,5-benzothiadiazepine] | 67% | 
CCCCC1(CCCC)CN(c2ccccc2)c2cc(SC)c(OCC(=O)N[C@@H](C(=O)N[C@@H](C)C(=O)O)c3ccccc3)cc2S(=O)(=O)N1 [Example 10, 1,1-Dioxo-3,3-dibutyl-5-phenyl-7-methylthio-8-(N—{(R)-α-[N—((S)-1-carboxyethyl)carbamoyl]benzyl}carbamoylmethoxy)-2,3,4,5-tetrahydro-1,2,5-benzothiadiazepine] | 68% | 
CCCCC1(CCCC)CN(c2ccccc2)c2cc(SC)c(OCC(=O)N[C@@H](C(=O)N[C@@H](C)C(=O)O)c3ccc(O)cc3)cc2S(=O)(=O)N1 [Example 12, 1,1-Dioxo-3,3-dibutyl-5-phenyl-7-methylthio-8-(N—{(R)-α-[N—((S)-1-carboxyethyl)carbamoyl]-4-hydroxybenzyl}carbamoylmethoxy)-2,3,4,5-tetrahydro-1,2,5-benzothiadiazepine] | 63% | 
CCCCC1(CCCC)CN(c2ccccc2)c2cc(SC)c(OCC(=O)N[C@@H](C(=O)N[C@H](C(=O)O)C(C)C)c3ccc(O)cc3)cc2S(=O)(=O)N1 [Example 13, 1,1-Dioxo-3,3-dibutyl-5-phenyl-7-methylthio-8-(N—{(R)-α-[N—((S)-1-carboxy-2-methylpropyl)carbamoyl]-4-hydroxybenzyl}carbamoylmethoxy)-2,3,4,5-tetra hydro-1,2,5-benzothiadiazepine] | 68% | IC50 [1]: 0.13 nM
CCCCC1(CCCC)CN(c2ccccc2)c2cc(SC)c(OCC(=O)N[C@@H](C(=O)NCC(=O)O)c3ccccc3)cc2S(=O)(=O)C1 [Example 14, 1,1-Dioxo-3,3-dibutyl-5-phenyl-7-methylthio-8-(N—{(R)-1′-phenyl-1′-[N′-(carboxymethyl)carbamoyl]methyl}carbamoylmethoxy)-2,3,4,5-tetrahydro-1,5-benzothiazepine] | 28% | fibrosis (Mdr2−/− mice): improves; liver histology (Mdr2−/− mice): improves; liver tests (serum) (Mdr2−/− mice): improves

From US10093697B2, “IBAT inhibitors for the treatment of liver diseases” (Albireo AB, priority 2010, dated 2018)
